# Assay: Clinical study of oral TU testosterone therapy in hypogonadal males: serum testosterone Cavg and Cmax responder analysis
# Assay type: in vivo, human
# Settings: for Cavg >300 ng/dL ≥75% patients / Cavg >300 ng/dL ≥80% patients / Cmax > 1500 ng/dL <15% patients / Cmax > 1500 ng/dL <20% patients / Cmax > 1800 ng/dL <5% patients / Cmax > 1800 ng/dL <10% patients / Cmax > 2500 ng/dL <2% patients / Cmax > 2500 ng/dL none of patients: with food
# Experimental: The dosage form from Example B of Composition 4 with dosing regimen (Regimen #9-16) of dosing category BID-equal dose with daily dose range 150-600 mg were used for a Clinic Study of Testosterone Therapy for hypogonadal males.
# The clinical study was a randomized double-blind, placebo-controlled dose escalating study of the safety, efficacy, tolerability, and pharmacokinetics of testosterone therapy in hypogonadal males. This clinic study was a single and multiple, ascending-dose study that was designed to determine the optimal starting, titration (if appropriate), or single fixed dose for safety and efficacy targeted by the US FDA. The study also verified the time for testosterone levels to reach steady state and identified a suitable fixed dose dosing regimen that satisfies an unmet need for safety and efficacy for oral TT.
# This study was carried out with conditions of a single-center, randomized, double-blind, placebo-controlled, ascending multiple-dose, and serial-group in adult hypogonadal male subjects. The objectives of this study were: • a) To assess the safety, efficacy, and tolerability of escalating single and multiple oral doses of TU dosage forms in hypogonadal males • b) To determine the pharmacokinetics (PK) of testosterone (T), DHT, TU, DHTU, and estradiol (E2) after single and multiple oral doses of TU dosage forms in hypogonadal males • C) To identify a fixed dose dosing regimen satisfying US FDA targets, without needing to titrate, for restoring serum T levels in hypogonadal males to the normal T range.
# The dosing regimen for this clinical study ranged from 150 mg daily dose (75 mg BID dose) to 600 mg daily dose (300 mg BID dose). Observed pharmacokinetic parameters (T, DHT, TU, DHTU, and E2) after single and multiple oral doses of TU dosage forms in the patients were recorded in connection with each daily dose listed in the report.
# The overall analyzed results of this clinical study were plotted according to % of patients for safety (Cmax<1,500 ng/dL) and efficacy (Cavg>300 ng/dL) with a variety of dosing regimens. Note that only doses that were multiples of 75 mg were tested in the clinical study, the results predicted for the other doses are estimated from these values.
# [1] = Regimen #1, TID-equal dose, TU 75/75/75 mg
# [2] = Regimen #2, TID-equal dose, TU 112/112/112 mg
# [3] = Regimen #3, TID-equal dose, TU 125/125/125 mg
# [4] = Regimen #4, TID-equal dose, TU 150/150/150 mg
# [5] = Regimen #5, TID-equal dose, TU 188/188/188 mg
# [6] = Regimen #6, TID-equal dose, TU 225/225/225 mg
# [7] = Regimen #7, TID-equal dose, TU 237/237/237 mg
# [8] = Regimen #8, TID-equal dose, TU 250/250/250 mg
# [9] = Regimen #9, BID-equal dose (AM/PM), TU 75/75 mg
# [10] = Regimen #10, BID-equal dose (AM/PM), TU 150/150 mg
# [11] = Regimen #11, BID-equal dose (AM/PM), TU 215/215 mg
# [12] = Regimen #12, BID-equal dose (AM/PM), TU 225/225 mg
# [13] = Regimen #13, BID-equal dose (AM/PM), TU 237/237 mg
# [14] = Regimen #14, BID-equal dose (AM/PM), TU 250/250 mg
# [15] = Regimen #15, BID-equal dose (AM/PM), TU 265/265 mg
# [16] = Regimen #16, BID-equal dose (AM/PM), TU 300/300 mg
# [17] = Regimen #17, BID-different dose (AM/PM), TU 75/225 mg
# [18] = Regimen #18, BID-different dose (AM/PM), TU 75/300 mg
# [19] = Regimen #19, BID-different dose (AM/PM), TU 150/225 mg
# [20] = Regimen #20, BID-different dose (AM/PM), TU 225/150 mg
# [21] = Regimen #21, BID-different dose (AM/PM), TU 225/300 mg
# [22] = Regimen #22, BID-different dose (AM/PM), TU 300/75 mg
# [23] = Regimen #23, BID-different dose (AM/PM), TU 300/150 mg
# [24] = Regimen #24, BID-different dose (AM/PM), TU 300/225 mg
smiles,measurement,setting,value
"CCCCCCCCCCC(=O)O[C@H]1CC[C@H]2[C@@H]3CCC4=CC(=O)CC[C@]4(C)[C@H]3CC[C@]12C [TU, testosterone undecanoate]",Cavg >300 ng/dL ≥75% patients,[1],No
same,Cavg >300 ng/dL ≥80% patients,[1],No
same,Cavg >300 ng/dL ≥75% patients,[2],No
same,Cavg >300 ng/dL ≥80% patients,[2],No
same,Cavg >300 ng/dL ≥75% patients,[3],No
same,Cavg >300 ng/dL ≥80% patients,[3],No
same,Cavg >300 ng/dL ≥75% patients,[4],Yes
same,Cavg >300 ng/dL ≥80% patients,[4],Yes
same,Cavg >300 ng/dL ≥75% patients,[5],Yes
same,Cavg >300 ng/dL ≥80% patients,[5],Yes
same,Cavg >300 ng/dL ≥75% patients,[6],Yes
same,Cavg >300 ng/dL ≥80% patients,[6],Yes
same,Cmax > 1500 ng/dL <15% patients,[6],No
same,Cmax > 1500 ng/dL <20% patients,[6],Yes
same,Cmax > 1800 ng/dL <5% patients,[6],No
same,Cmax > 1800 ng/dL <10% patients,[6],Yes
same,Cmax > 2500 ng/dL <2% patients,[6],Yes
same,Cmax > 2500 ng/dL none of patients,[6],No
same,Cavg >300 ng/dL ≥75% patients,[7],Yes
same,Cavg >300 ng/dL ≥80% patients,[7],Yes
same,Cmax > 1500 ng/dL <15% patients,[7],No
same,Cmax > 1500 ng/dL <20% patients,[7],Yes
same,Cmax > 1800 ng/dL <5% patients,[7],No
same,Cmax > 1800 ng/dL <10% patients,[7],Yes
same,Cmax > 2500 ng/dL <2% patients,[7],No
same,Cmax > 2500 ng/dL none of patients,[7],No
same,Cavg >300 ng/dL ≥75% patients,[8],Yes
same,Cavg >300 ng/dL ≥80% patients,[8],Yes
same,Cmax > 1500 ng/dL <15% patients,[8],No
same,Cmax > 1500 ng/dL <20% patients,[8],No
same,Cmax > 1800 ng/dL <5% patients,[8],No
same,Cmax > 1800 ng/dL <10% patients,[8],No
same,Cmax > 2500 ng/dL <2% patients,[8],No
same,Cmax > 2500 ng/dL none of patients,[8],No
same,Cavg >300 ng/dL ≥75% patients,[9],No
same,Cavg >300 ng/dL ≥80% patients,[9],No
same,Cmax > 1500 ng/dL <15% patients,[9],Yes
same,Cmax > 1500 ng/dL <20% patients,[9],Yes
same,Cmax > 1800 ng/dL <5% patients,[9],Yes
same,Cmax > 1800 ng/dL <10% patients,[9],Yes
same,Cmax > 2500 ng/dL <2% patients,[9],Yes
same,Cmax > 2500 ng/dL none of patients,[9],Yes
same,Cavg >300 ng/dL ≥75% patients,[10],No
same,Cavg >300 ng/dL ≥80% patients,[10],No
same,Cmax > 1500 ng/dL <15% patients,[10],Yes
same,Cmax > 1500 ng/dL <20% patients,[10],Yes
same,Cmax > 1800 ng/dL <5% patients,[10],Yes
same,Cmax > 1800 ng/dL <10% patients,[10],Yes
same,Cmax > 2500 ng/dL <2% patients,[10],Yes
same,Cmax > 2500 ng/dL none of patients,[10],Yes
same,Cavg >300 ng/dL ≥75% patients,[11],Yes
same,Cavg >300 ng/dL ≥80% patients,[11],No
same,Cmax > 1500 ng/dL <15% patients,[11],Yes
same,Cmax > 1500 ng/dL <20% patients,[11],Yes
same,Cmax > 1800 ng/dL <5% patients,[11],Yes
same,Cmax > 1800 ng/dL <10% patients,[11],Yes
same,Cmax > 2500 ng/dL <2% patients,[11],Yes
same,Cmax > 2500 ng/dL none of patients,[11],Yes
same,Cavg >300 ng/dL ≥75% patients,[12],Yes
same,Cavg >300 ng/dL ≥80% patients,[12],Yes
same,Cmax > 1500 ng/dL <15% patients,[12],Yes
same,Cmax > 1500 ng/dL <20% patients,[12],Yes
same,Cmax > 1800 ng/dL <5% patients,[12],Yes
same,Cmax > 1800 ng/dL <10% patients,[12],Yes
same,Cmax > 2500 ng/dL <2% patients,[12],Yes
same,Cmax > 2500 ng/dL none of patients,[12],Yes
same,Cavg >300 ng/dL ≥75% patients,[13],Yes
same,Cavg >300 ng/dL ≥80% patients,[13],Yes
same,Cmax > 1500 ng/dL <15% patients,[13],Yes
same,Cmax > 1500 ng/dL <20% patients,[13],Yes
same,Cmax > 1800 ng/dL <5% patients,[13],Yes
same,Cmax > 1800 ng/dL <10% patients,[13],Yes
same,Cmax > 2500 ng/dL <2% patients,[13],Yes
same,Cmax > 2500 ng/dL none of patients,[13],Yes
same,Cavg >300 ng/dL ≥75% patients,[14],Yes
same,Cavg >300 ng/dL ≥80% patients,[14],Yes
same,Cmax > 1500 ng/dL <15% patients,[14],No
same,Cmax > 1500 ng/dL <20% patients,[14],Yes
same,Cmax > 1800 ng/dL <5% patients,[14],Yes
same,Cmax > 1800 ng/dL <10% patients,[14],Yes
same,Cmax > 2500 ng/dL <2% patients,[14],Yes
same,Cmax > 2500 ng/dL none of patients,[14],Yes
same,Cavg >300 ng/dL ≥75% patients,[15],Yes
same,Cavg >300 ng/dL ≥80% patients,[15],Yes
same,Cmax > 1500 ng/dL <15% patients,[15],No
same,Cmax > 1500 ng/dL <20% patients,[15],Yes
same,Cmax > 1800 ng/dL <5% patients,[15],No
same,Cmax > 1800 ng/dL <10% patients,[15],Yes
same,Cmax > 2500 ng/dL <2% patients,[15],Yes
same,Cmax > 2500 ng/dL none of patients,[15],No
same,Cavg >300 ng/dL ≥75% patients,[16],Yes
same,Cavg >300 ng/dL ≥80% patients,[16],Yes
same,Cmax > 1500 ng/dL <15% patients,[16],No
same,Cmax > 1500 ng/dL <20% patients,[16],No
same,Cmax > 1800 ng/dL <5% patients,[16],No
same,Cmax > 1800 ng/dL <10% patients,[16],Yes
same,Cmax > 2500 ng/dL <2% patients,[16],Yes
same,Cmax > 2500 ng/dL none of patients,[16],No
same,Cavg >300 ng/dL ≥75% patients,[17],No
same,Cavg >300 ng/dL ≥80% patients,[17],No
same,Cmax > 1500 ng/dL <15% patients,[17],Yes
same,Cmax > 1500 ng/dL <20% patients,[17],Yes
same,Cmax > 1800 ng/dL <5% patients,[17],Yes
same,Cmax > 1800 ng/dL <10% patients,[17],Yes
same,Cmax > 2500 ng/dL <2% patients,[17],Yes
same,Cmax > 2500 ng/dL none of patients,[17],Yes
same,Cavg >300 ng/dL ≥75% patients,[18],No
same,Cavg >300 ng/dL ≥80% patients,[18],No
same,Cmax > 1500 ng/dL <15% patients,[18],Yes
same,Cmax > 1500 ng/dL <20% patients,[18],Yes
same,Cmax > 1800 ng/dL <5% patients,[18],No
same,Cmax > 1800 ng/dL <10% patients,[18],Yes
same,Cmax > 2500 ng/dL <2% patients,[18],Yes
same,Cmax > 2500 ng/dL none of patients,[18],No
same,Cavg >300 ng/dL ≥75% patients,[19],No
same,Cavg >300 ng/dL ≥80% patients,[19],No
same,Cmax > 1500 ng/dL <15% patients,[19],Yes
same,Cmax > 1500 ng/dL <20% patients,[19],Yes
same,Cmax > 1800 ng/dL <5% patients,[19],Yes
same,Cmax > 1800 ng/dL <10% patients,[19],Yes
same,Cmax > 2500 ng/dL <2% patients,[19],Yes
same,Cmax > 2500 ng/dL none of patients,[19],Yes
same,Cavg >300 ng/dL ≥75% patients,[20],Yes
same,Cavg >300 ng/dL ≥80% patients,[20],No
same,Cmax > 1500 ng/dL <15% patients,[20],Yes
same,Cmax > 1500 ng/dL <20% patients,[20],Yes
same,Cmax > 1800 ng/dL <5% patients,[20],Yes
same,Cmax > 1800 ng/dL <10% patients,[20],Yes
same,Cmax > 2500 ng/dL <2% patients,[20],Yes
same,Cmax > 2500 ng/dL none of patients,[20],Yes
same,Cavg >300 ng/dL ≥75% patients,[21],Yes
same,Cavg >300 ng/dL ≥80% patients,[21],Yes
same,Cmax > 1500 ng/dL <15% patients,[21],No
same,Cmax > 1500 ng/dL <20% patients,[21],No
same,Cmax > 1800 ng/dL <5% patients,[21],No
same,Cmax > 1800 ng/dL <10% patients,[21],Yes
same,Cmax > 2500 ng/dL <2% patients,[21],Yes
same,Cmax > 2500 ng/dL none of patients,[21],No
same,Cavg >300 ng/dL ≥75% patients,[22],No
same,Cavg >300 ng/dL ≥80% patients,[22],No
same,Cmax > 1500 ng/dL <15% patients,[22],No
same,Cmax > 1500 ng/dL <20% patients,[22],Yes
same,Cmax > 1800 ng/dL <5% patients,[22],No
same,Cmax > 1800 ng/dL <10% patients,[22],Yes
same,Cavg >300 ng/dL ≥75% patients,[23],Yes
same,Cavg >300 ng/dL ≥80% patients,[23],Yes
same,Cavg >300 ng/dL ≥75% patients,[24],Yes
same,Cavg >300 ng/dL ≥80% patients,[24],Yes
same,US FDA T level targets for safety and efficacy,"fixed dose, 430 mg TU daily (215 mg BID-equal) to 480 mg TU daily (240 mg BID-equal)",can satisfy US FDA T level targets for safety and efficacy without titration

# From patent US11559530B2, “Oral testosterone undecanoate therapy” (Lipocine Inc., priority 2016, dated 2023)
